Experimental data from paper PMC8379205, “Bioinspired caries preventive strategy via customizable pellicles of saliva-derived protein/peptide constructs” (Scientific Reports, 2021).
Where two headings read alike, the source gives them in different places. Non-standard residues stand in square brackets, D forms with d. Residues, ends and D or L forms follow the SMILES beside them. No end group written: not given here. pS = N[C@@H](COP(=O)(O)O)C(=O)O

Legend:
[1] = test system: Streptococcus mutans U159; format: cell-based
Description: MICs were assessed for all proteins/peptides against Streptococcus mutants (S. mutans) U159 oral bacteria to identify the lowest concentration at which no bacterial growth is observed. Planktonic bacteria were grown aerobically (10% CO2) in brain heart infusion (BHI) medium (BD BBL™ #211,059, MD, USA) overnight. […] BHI medium was used as a control. Bacteria were inoculated to a final concentration of 3.0 × 10^6 CFU/ml per well. The plates were incubated at 37 °C in a 10% CO2 atmosphere for 24 h under continuous shaking (200 rpm). Absorbance at 620 nm was measured using a microtiter plate reader (BioTek™ SynergyHT, VT, USA).

S. mutans U159 biofilms [2] = experiment: Crystal violet (CV) biomass assay on pellicle-coated substrates; format: cell-based, Streptococcus mutans; details: no sucrose (NS), 24 h biofilm; for Biovolume / biomass of biofilm (crystal violet): pellicle-coated with 200 μM for 2 h at 37 °C, OD 620 nm, compared to whole saliva; for Biofilm structure (brightfield, crystal violet-stained): polystyrene microtiter plates
Description: CV assay was performed to assess the remaining bioburden on pellicle-coated substrates with protein/peptide test groups in comparison to human whole saliva. Microtiter plates and HA discs were used as substrates to be pellicle-coated before growing biofilms. Each substrate was pellicle-coated with 50 μl of 200 μM protein/peptide candidates for 2 h at 37 °C under gentle shaking. Pooled filtered whole saliva and the vehicle were used as positive and negative controls respectively. The unbound protein/peptide/saliva were removed, the adjusted inoculum was dispensed without or with 1% sucrose supplementation and the samples were incubated as mentioned above but without agitation. Next day, the samples were rinsed and stained with 0.1% CV. After 15 min, the stain was rinsed, air dried, and photographed. All formed biofilms were structurally characterized with a bright field inverted microscope (EVOS™ xl core, MA, USA) before dissolving the satin, with 33% acetic acid, and reading at OD 620 nm.

[3] = 2-photon immobilization of fluorescently labelled proteins/peptides on human enamel; format: binding; details: FAM-labelled
Text: This characterization method aimed to monitor the amount of protein/peptide molecules immobilized on enamel in pellicle-mimicking conditions to infer their binding capacity. Z-stacks for pellicle-coated enamel slices were acquired to monitor the immobilization patterns and thus, the binding capacity of fluorescently-labelled proteins/peptides. Enamel samples were ground to 0.5–0.6 mm and polished with 600 silica-grit papers using a polishing machine (Buehler, IL, USA). Samples were then ultrasonicated in a water bath for 20 min, dried and pellicle-coated with fluorescently labeled proteins/peptides as mentioned above. 2-photon images were acquired as aforementioned using 40 × NA 0.8 water immersion objective (LUMPlanFl/IR, Olympus, Japan). Solutions of the tagging molecule (FAM) and the vehicle, 0.01% acetic acid, were used to pellicle-coat the positive and negative controls respectively. The amount of immobilized fluorescent protein/peptide molecules were quantified by calibrating the emitted fluorescence signals[21]^. The mean integrated density was calculated that sums all of the pixels along the acquired z-stacks, 4 images each.

S. mutans U159 biofilms [4] = experiment: Live/dead vitality assay of biofilms on pellicle coatings; format: cell-based, Streptococcus mutans; details: NS and WS conditions, HA discs; order Hist3 followed by Hist5, Hist1 and RR14; 3 independent times, n = 5
Description: The vitality of grown biofilms was observed alongside their biomass to determine the antimicrobial efficacy of protein/peptide pellicle-coatings against the attached bacteria in the biofilm state. All the steps are the same as mentioned above till the staining step. Working fluorescent solution was prepared by adding 3 μl of SYTO® 9 stain and 3 μl of Propidium iodide stain to 1 ml of filter-sterilized water. The staining solution was added to each sample very gently so as not to disturb the biofilm. After 20 min light-protected incubation, samples were rinsed with 0.9% NaCl and imaged with fluorescent inverted microscope (EVOS™ M5000, MA, USA) using 20 × lens. All assays were conducted 3 independent times with sample size n = 5.

S. mutans U159 biofilms [5] = experiment: 2-photon 3D renderings of biofilms grown on pellicle-coated HA discs; format: cell-based, Streptococcus mutans; details: 24 h biofilm, cariogenic conditions (1% sucrose), 2-photon 3D volume
Text: Z-stacks were acquired with the 2-photon microscope (Ultima IV, Prairie Technology Inc., WI, USA) for 3D structural and vitality characterization of biofilms grown on protein/peptide pellicle-coated HA discs. Non-descanned high sensitivity multi-alckali photocatode photomultiplier detectors (R3896, Hamamatsu, Japan) were used to allow visualization of multiple fluorophores located deep within the specimen. The infra-red (IR) laser (MAI TAI, Spectra-Physics, USA), tuned at 870 nm, was operated in pulsed mode using a 20 × NA1.0 water-immersion objective (XLUMPlanFLN, Olympus, Japan) with a 2 mm working distance suitable for deep imaging. Images were compiled and analyzed with FIJI software (Fiji Is Just) ImageJ, version: 2.1.0/1.53c https://imagej.net/Contributors[19].

[6] = planktonic S. mutans U159, BHI medium, 3.0 × 10^6 CFU/ml, twofold dilutions 0–512 μM, 37 °C, 10% CO2, 24 h, shaking 200 rpm, absorbance 620 nm

Molecule | MIC ([1]; U159, 24 h) | Biovolume / biomass of biofilm (crystal violet) (S. mutans U159 biofilms [2]) | Biofilm structure (brightfield, crystal violet-stained) (S. mutans U159 biofilms [2]) | MIC [1, 6] | Immobilization capacity on enamel [3] | Dead cells / antimicrobial efficacy in biofilm (Syto-9/propidium iodide) (S. mutans U159 biofilms [4]) | Biofilm thickness (S. mutans U159 biofilms [5])
CC(C)C[C@H](NC(=O)[C@H](Cc1ccccc1)NC(=O)[C@H](CCCCN)NC(=O)[C@H](CCC(=O)O)NC(=O)[C@H](CCC(=O)O)NC(=O)[C@H](CO)NC(=O)[C@H](CO)NC(=O)[C@@H](N)CC(=O)O)C(=O)N[C@@H](CCCNC(=N)N)C(=O)O [DR9/2] (H-DSSEEKFLR-OH) | > 512 µM | – | – | – | – | – | –
DSpSpEEKFLRDSpSpEEKFLR [DR9-DR9, duplicated DR9 construct, domains linked synthetically] | – | highest biovolume | clumps and aggregates | > 512 µM | – | – | –
D[pS][pS]EEKFLRRIGRFGYGYGPYQPVPEQPLYPQPYQPQYQQYTF [Statherin] | > 512 µM | highest biovolume | clumps and aggregates | – | highest immobilization capacity | – | –
Histatin1: native salivary protein, synthesized (DSHEKRHHGYRRKFHEKHHSHREFPFYGDYGSNYLYDN; ends and bridges not checked; UniProt P15515 20-57, looked up) | – | highest biovolume | – | > 512 µM | – | Many dead cells | –
N=C(N)NCCC[C@H](NC(=O)[C@H](Cc1ccc(O)cc1)NC(=O)CNC(=O)[C@H](CCCNC(=N)N)NC(=O)[C@H](Cc1c[nH]cn1)NC(=O)[C@H](CO)NC(=O)[C@H](Cc1c[nH]cn1)NC(=O)[C@H](Cc1c[nH]cn1)NC(=O)[C@H](CCCCN)NC(=O)[C@H](CCC(=O)O)NC(=O)[C@H](Cc1c[nH]cn1)NC(=O)[C@H](Cc1ccccc1)NC(=O)[C@H](CCCCN)NC(=O)[C@@H](N)CCCNC(=N)N)C(=O)O [RR14] (H-RKFHEKHHSHRGYR-OH) | 384 µM | – | – | – | – | – | –
CC(C)C[C@H](NC(=O)[C@H](Cc1ccc(O)cc1)NC(=O)[C@H](CC(N)=O)NC(=O)[C@H](CO)NC(=O)[C@H](CCCNC(=N)N)NC(=O)[C@H](Cc1ccc(O)cc1)NC(=O)CNC(=O)[C@H](CCCNC(=N)N)NC(=O)[C@H](Cc1c[nH]cn1)NC(=O)[C@H](CO)NC(=O)[C@H](Cc1c[nH]cn1)NC(=O)[C@H](Cc1c[nH]cn1)NC(=O)[C@H](CCCCN)NC(=O)[C@H](CCC(=O)O)NC(=O)[C@H](Cc1c[nH]cn1)NC(=O)[C@H](Cc1ccccc1)NC(=O)[C@H](CCCCN)NC(=O)[C@H](CCCNC(=N)N)NC(=O)[C@H](CCCCN)NC(=O)[C@H](Cc1ccc(O)cc1)NC(=O)CNC(=O)[C@H](Cc1c[nH]cn1)NC(=O)[C@H](Cc1c[nH]cn1)NC(=O)[C@H](CCCNC(=N)N)NC(=O)[C@H](CCCCN)NC(=O)[C@H](C)NC(=O)[C@H](Cc1c[nH]cn1)NC(=O)[C@H](CO)NC(=O)[C@@H](N)CC(=O)O)C(=O)N[C@@H](Cc1ccc(O)cc1)C(=O)N[C@@H](CC(=O)O)C(=O)N[C@@H](CC(N)=O)C(=O)O [Histatin3] | – | considerably reduced biomass build-up | more dispersed biofilms | 128 µM | – | Many dead cells | –
CC(C)C[C@H](NC(=O)[C@H](Cc1ccccc1)NC(=O)[C@H](CCCCN)NC(=O)[C@H](CCC(=O)O)NC(=O)[C@H](CCC(=O)O)NC(=O)[C@H](COP(=O)(O)O)NC(=O)[C@H](COP(=O)(O)O)NC(=O)[C@@H](N)CC(=O)O)C(=O)N[C@@H](CCCNC(=N)N)C(=O)O [DR9] (H-D[pS][pS]EEKFLR-OH; N-terminus and C-terminus assumed) | > 512 µM | considerably reduced biomass build-up | – | – | – | – | 60–65 μm
